Measurements reported in US11827629B2, “CDGSH iron sulfur domain 2 activators and use thereof” (National Health Research Institutes, priority 2021, dated 2023).

What follows are compounds tested on Cisd2 promoter with firefly luciferase reporter (assay: Cisd2-luciferase reporter assay in HEK293-CISD2 cells). Conditions: Homo sapiens, 24 hours incubation, luciferase luminescence.
Type: cell-based
Description: A typical in vitro screening method includes the following steps: (i) obtaining an initial level of Cisd2 in a batch of human embryonic kidney cells 293 (HEK-293 cells) that express Cisd2, (ii) treating the batch of HEK-293 cells with a compound of this invention, and (iii) analyzing the level of Cisd2 after the treatment, thereby determining the potency of the compound as a Cisd2 activator.
Compounds 1-109 were tested for increasing the level of Cisd2 in human embryonic kidney cells 293 (HEK293), a transfected cell line expressing Cisd2, using the Cisd2-luciferase reporter assay as follows.
The transfected HEK293 cells stably expressed Cisd2 promoter with firefly luciferase reporter (HEK293-CISD2). They were kept in Dulbecco's modified Eagle's medium (DMEM) (Gibco, New York, NY, USA). Culture medium was supplemented with 10% heat-inactivated fetal bovine serum (FBS), 2 mM L-Glutamine, 1 mM sodium pyruvate, 0.1% MEM Non-Essential Amino Acids, 1 ug/ml puromycin and 1% penicillin/streptomycin (HyClone, Logan, UT, USA). The cells were maintained at 37° C. in an incubator (Thermo Fisher Scientific, New York, NY, USA) with an atmosphere of 5% CO2. The stably transfected cells were seeded in 384-well plates at a density of 3×10^3 cells/well. After incubation with tested compounds at 37° C. for 24 hours, ONE-Glo™ Luciferase Assay System (Promega, Madison, WI, USA) was added at room temperature for 5 minutes to detect any luciferase activity. Luminescence intensity was registered using plate reader Victor^2V (PerkinElmer, Boston, MA, USA).
EC50 values in this table are presented in three classes, i.e., A: <1 μM, B: 1 μM-5 μM, and C: 5 μM-10 μM.

EC50 [µM]	SMILES
< 1	O=C(CCSc1ccccc1Cl)N1Cc2ccccc2C1 [Compound 78, 3-[(2-chlorophenyl)sulfanyl]-1-(1,3-dihydro-2H-isoindol-2-yl)propan-1-one]
< 1	O=C(CCSc1ccccc1)N1Cc2ccccc2C1 [Compound 79, 1-(1,3-dihydro-2H-isoindol-2-yl)-3-(phenylsulfanyl)propan-1-one]
1 to 5	O=C(C[S+]([O-])c1ccc(Cl)s1)N1Cc2ccccc2C1 (centres unmarked) [Compound 80, 2-[(5-chlorothiophen-2-yl)sulfinyl]-1-(1,3-dihydro-2H-isoindol-2-yl)ethanone]
< 1	O=C(C[S+]([O-])c1ccccc1Cl)N1Cc2ccccc2C1 (centres unmarked) [Compound 81, 2-[(2-chlorophenyl)sulfinyl]-1-(1,3-dihydro-2H-isoindol-2-yl)ethanone]
< 1	O=C(C[S+]([O-])c1cccc(F)n1)N1Cc2ccccc2C1 (centres unmarked) [Compound 82, 1-(1,3-dihydro-2H-isoindol-2-yl)-2-[(6-fluoropyridin-2-yl)sulfinyl]ethanone]
< 1	O=C(CC[S+]([O-])c1ccccc1Cl)N1Cc2ccccc2C1 (centres unmarked) [Compound 83, 3-[(2-chlorophenyl)sulfinyl]-1-(1,3-dihydro-2H-isoindol-2-yl)propan-1-one]
< 1	O=C(CC[S+]([O-])c1ccccc1)N1Cc2ccccc2C1 (centres unmarked) [Compound 84, 1-(1,3-dihydro-2H-isoindol-2-yl)-3-(phenylsulfinyl)propan-1-one]
< 1	O=C(CS(=O)(=O)c1ccccn1)N1Cc2ccc(O)cc2C1 [Compound 85, 1-(5-hydroxy-1,3-dihydro-2H-isoindol-2-yl)-2-(pyridin-2-ylsulfonyl)ethanone]
< 1	O=C(CS(=O)(=O)c1cccc(F)c1)N1Cc2ccccc2C1 [Compound 86, 1-(1,3-dihydro-2H-isoindol-2-yl)-2-[(3-fluorophenyl)sulfonyl]ethanone]
< 1	O=C(CS(=O)(=O)c1ccc(F)cc1)N1Cc2ccccc2C1 [Compound 87, 1-(1,3-dihydro-2H-isoindol-2-yl)-2-[(4-fluorophenyl)sulfonyl]ethanone]
< 1	O=C(CS(=O)(=O)c1ccc(Cl)s1)N1Cc2ccccc2C1 [Compound 88, 2-[(5-chlorothiophen-2-yl)sulfonyl]-1-(1,3-dihydro-2H-isoindol-2-yl)ethanone]
5 to 10	O=C(CS(=O)(=O)c1cc(F)ccc1F)N1Cc2ccccc2C1 [Compound 89, 2-[(2,5-difluorophenyl)sulfonyl]-1-(1,3-dihydro-2H-isoindol-2-yl)ethanone]
< 1	O=C(CS(=O)(=O)c1ccccc1F)N1Cc2ccccc2C1 [Compound 90, 1-(1,3-dihydro-2H-isoindol-2-yl)-2-[(2-fluorophenyl)sulfonyl]ethanone]
< 1	O=C(CS(=O)(=O)c1ccc(F)cc1F)N1Cc2ccccc2C1 [Compound 91, 2-[(2,4-difluorophenyl)sulfonyl]-1-(1,3-dihydro-2H-isoindol-2-yl)ethanone]
< 1	O=C(CS(=O)(=O)c1ccccc1F)N1Cc2ccc(F)cc2C1 [Compound 92, 1-(5-fluoro-1,3-dihydro-2H-isoindol-2-yl)-2-[(2-fluorophenyl)sulfonyl]ethanone]
< 1	O=C(CS(=O)(=O)c1ccccc1)N1Cc2ccc(F)cc2C1 [Compound 93, 1-(5-fluoro-1,3-dihydro-2H-isoindol-2-yl)-2-(phenylsulfonyl)ethanone]

EC50 [µM]	SMILES
< 1	Cc1csc(S(=O)(=O)CC(=O)N2Cc3ccccc3C2)n1 [Compound 94, 1-(1,3-dihydro-2H-isoindol-2-yl)-2-[(4-methyl-1,3-thiazol-2-yl)sulfonyl]ethanone]
< 1	O=C(CS(=O)(=O)c1ccccc1F)N1Cc2cc(F)c(F)cc2C1 [Compound 95, 1-(5,6-difluoro-1,3-dihydro-2H-isoindol-2-yl)-2-[(2-fluorophenyl)sulfonyl]ethanone]
< 1	O=C(CS(=O)(=O)c1ccccc1)N1Cc2cccc(F)c2C1 [Compound 96, 1-(4-fluoro-1,3-dihydro-2H-isoindol-2-yl)-2-(phenylsulfonyl)ethanone]
< 1	O=C(CS(=O)(=O)c1cccc(F)n1)N1Cc2ccccc2C1 [Compound 97, 1-(1,3-dihydro-2H-isoindol-2-yl)-2-[(6-fluoropyridin-2-yl)sulfonyl]ethanone]
< 1	O=C(CS(=O)(=O)c1cccc(Cl)c1Cl)N1Cc2ccccc2C1 [Compound 98, 2-[(2,3-dichlorophenyl)sulfonyl]-1-(1,3-dihydro-2H-isoindol-2-yl)ethanone]
< 1	O=C(CS(=O)(=O)c1ccccc1Cl)N1Cc2ccccc2C1 [Compound 99, 2-[(2-chlorophenyl)sulfonyl]-1-(1,3-dihydro-2H-isoindol-2-yl)ethanone]
1 to 5	O=C(CS(=O)(=O)c1ccccn1)N1Cc2ccc(N3CCOCC3)cc2C1 [Compound 100, 1-[5-(morpholin-4-yl)-1,3-dihydro-2H-isoindol-2-yl]-2-(pyridin-2-ylsulfonyl)ethanone]
< 1	O=C(CS(=O)(=O)c1ccc(F)cn1)N1Cc2ccccc2C1 [Compound 101, 1-(1,3-dihydro-2H-isoindol-2-yl)-2-[(5-fluoropyridin-2-yl)sulfonyl]ethanone]
1 to 5	Cn1ccc(S(=O)(=O)CC(=O)N2Cc3ccccc3C2)n1 [Compound 102, 1-(1,3-dihydro-2H-isoindol-2-yl)-2-[(1-methyl-1H-pyrazol-3-yl)sulfonyl]ethanone]
< 1	O=C(CS(=O)(=O)c1ncccc1F)N1Cc2ccccc2C1 [Compound 103, 1-(1,3-dihydro-2H-isoindol-2-yl)-2-[(3-fluoropyridin-2-yl)sulfonyl]ethanone]
< 1	O=C(CS(=O)(=O)c1ncco1)N1Cc2ccccc2C1 [Compound 104, 1-(1,3-dihydro-2H-isoindol-2-yl)-2-(1,3-oxazol-2-ylsulfonyl)ethanone]
5 to 10	O=C(CS(=O)(=O)c1ccc(C(F)F)s1)N1Cc2ccccc2C1 [Compound 105, 2-{[5-(difluoromethyl)thiophen-2-yl]sulfonyl}-1-(1,3-dihydro-2H-isoindol-2-yl)ethanone]
< 1	O=C(CCS(=O)(=O)c1ccccc1Cl)N1Cc2ccccc2C1 [Compound 106, 3-[(2-chlorophenyl)sulfonyl]-1-(1,3-dihydro-2H-isoindol-2-yl)propan-1-one]
< 1	O=C(CCS(=O)(=O)c1ccccc1)N1Cc2ccccc2C1 [Compound 107, 1-(1,3-dihydro-2H-isoindol-2-yl)-3-(phenylsulfonyl)propan-1-one]
1 to 5	O=C(CCS(=O)(=O)c1cccc(F)n1)N1Cc2ccccc2C1 [Compound 108, 1-(1,3-dihydro-2H-isoindol-2-yl)-3-[(6-fluoropyridin-2-yl)sulfonyl]propan-1-one]
< 1	O=C(CS(=O)(=O)c1ncco1)N1Cc2ccc(F)cc2C1 [Compound 109, 1-(5-fluoro-1,3-dihydro-2H-isoindol-2-yl)-2-(1,3-oxazol-2-ylsulfonyl)ethanone]
